{"source": "patent US20260240847A1", "about": "“COMPOUNDS WITH ANTI-TUMOR ACTIVITY AGAINST CANCER CELLS BEARING TYROSINE KINASE INHIBITOR RESISTANT EGFR MUTATIONS” (BOARD OF REGENTS, THE UNIVERSITY OF TEXAS SYSTEM, priority 2019, published 2026)", "test_in_all_cases": "Ba/F3 cell viability, Cell Titer Glo", "key": {"EGFR E709K L858R": {"target": "EGFR E709K L858R (Homo sapiens, UniProt P00533, E709K/L858R)", "conditions": "read-out: IC50 Values; Ba/F3 cells expressing EGFR E709K L858R, 72 hours", "description": "(§1) Cell viability was determined by the Cell Titer Glo assay.\n(§2) Briefly, stable Ba/F3 cell lines were generated by retroviral transduction of Ba/F3 cell line for 12 hours. […] Three days after transduction, 2 μg/ml puromycin (Invitrogen) was added to the RPMI media. Cell lines were then grown in the absence of IL-3 for two weeks and cell viability was assessed every three days using the Cell Titer Glo assay (Progema).\n(§3) Briefly, 2000-3000 cells per well were plated in 384-well plates (Greiner Bio-One) in technical triplicate. Cells were treated with seven different concentrations of tyrosine kinase inhibitors or vehicle alone at a final volume of 40 μL per well. After 3 days, 11 μL of Cell Titer Glo was added to each well. Plates were shaken for 15 minutes, and bioluminescence was determined using a FLUOstar OPTIMA multi-mode micro-plate reader (BMG LABTECH). Bioluminescence values were normalized to DMSO treated cells, and normalized values were plotted in GraphPad Prism using non-linear regression fit to normalized data with a variable slope."}, "EGFR E709K G719S": {"target": "EGFR E709K G719S (Homo sapiens, UniProt P00533, E709K/G719S)", "conditions": "read-out: IC50 Values; Ba/F3 cells expressing EGFR E709K G719S, 72 hours", "description": "as §1, §2, §3"}, "EGFR S768I/T790M": {"target": "EGFR S768I/T790M (Homo sapiens, UniProt P00533, S768I/T790M)", "conditions": "read-out: IC50 Values; Ba/F3 cells expressing EGFR S768I/T790M, 72 hours", "description": "as §1, §3"}, "EGFR L858R T790M/C797S": {"target": "EGFR L858R T790M/C797S (Homo sapiens, UniProt P00533, C797S/L858R/T790M)", "conditions": "read-out: IC50 Values; Ba/F3 cells expressing EGFR L858R T790M/C797S, 72 hours", "description": "as §1, §2, §3"}, "EGFR G724S": {"target": "EGFR G724S (Homo sapiens, UniProt P00533, G724S)", "conditions": "read-out: IC50 Values; Ba/F3 cells expressing EGFR G724S, 72 hours", "description": "as §1, §2, §3"}, "EGFR S768I": {"target": "EGFR S768I (Homo sapiens, UniProt P00533, S768I)", "conditions": "read-out: IC50 Values; Ba/F3 cells expressing EGFR S768I, 72 hours", "description": "as §1, §2, §3"}, "EGFR G719A L861Q": {"target": "EGFR G719A L861Q (Homo sapiens, UniProt P00533, G719A/L861Q)", "conditions": "read-out: IC50 Values; Ba/F3 cells expressing EGFR G719A L861Q, 72 hours", "description": "as §1, §2, §3"}, "EGFR L861R": {"target": "EGFR L861R (Homo sapiens, UniProt P00533, L861R)", "sequence (P00533 25-1210 L861R)": "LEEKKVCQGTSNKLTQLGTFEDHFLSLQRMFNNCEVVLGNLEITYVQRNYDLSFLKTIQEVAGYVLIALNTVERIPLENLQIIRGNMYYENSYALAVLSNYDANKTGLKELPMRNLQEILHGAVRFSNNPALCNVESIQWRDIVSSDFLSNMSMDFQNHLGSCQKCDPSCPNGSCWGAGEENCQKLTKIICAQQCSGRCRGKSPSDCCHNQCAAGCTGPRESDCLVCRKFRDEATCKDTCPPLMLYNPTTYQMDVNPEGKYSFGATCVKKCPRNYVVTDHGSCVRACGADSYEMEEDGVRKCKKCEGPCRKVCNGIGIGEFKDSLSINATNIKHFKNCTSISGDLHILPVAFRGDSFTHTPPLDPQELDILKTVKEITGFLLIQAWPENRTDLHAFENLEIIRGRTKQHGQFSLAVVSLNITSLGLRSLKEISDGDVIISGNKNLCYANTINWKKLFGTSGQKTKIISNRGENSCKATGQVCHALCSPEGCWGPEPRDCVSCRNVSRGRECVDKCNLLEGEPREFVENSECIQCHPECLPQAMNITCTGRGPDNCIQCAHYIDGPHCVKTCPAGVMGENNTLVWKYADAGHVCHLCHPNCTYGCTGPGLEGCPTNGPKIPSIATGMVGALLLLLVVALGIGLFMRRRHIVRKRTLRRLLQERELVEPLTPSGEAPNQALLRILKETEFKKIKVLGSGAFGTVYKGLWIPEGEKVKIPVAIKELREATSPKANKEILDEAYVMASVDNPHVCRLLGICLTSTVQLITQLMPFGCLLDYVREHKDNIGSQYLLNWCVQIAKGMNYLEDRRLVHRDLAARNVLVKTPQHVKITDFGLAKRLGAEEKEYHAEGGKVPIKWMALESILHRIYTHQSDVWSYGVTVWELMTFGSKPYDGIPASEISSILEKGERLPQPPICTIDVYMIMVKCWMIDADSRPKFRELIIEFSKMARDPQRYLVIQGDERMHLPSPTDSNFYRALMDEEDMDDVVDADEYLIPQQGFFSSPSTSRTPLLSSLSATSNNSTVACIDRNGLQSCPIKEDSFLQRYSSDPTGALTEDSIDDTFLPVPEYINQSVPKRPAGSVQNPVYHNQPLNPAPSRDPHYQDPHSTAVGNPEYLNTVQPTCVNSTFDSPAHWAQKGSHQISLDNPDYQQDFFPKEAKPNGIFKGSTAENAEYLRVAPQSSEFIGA", "conditions": "read-out: IC50 Values; Ba/F3 cells expressing EGFR L861R, 72 hours", "description": "as §1, §2, §3"}, "EGFR L833F": {"target": "EGFR L833F (Homo sapiens, UniProt P00533, L833F)", "conditions": "read-out: IC50 Values; Ba/F3 cells expressing EGFR L833F, 72 hours", "description": "as §1, §2, §3"}, "EGFR S720P": {"target": "EGFR S720P (Homo sapiens, UniProt P00533, S720P)", "conditions": "read-out: IC50 Values; Ba/F3 cells expressing EGFR S720P, 72 hours", "description": "as §1, §2, §3"}, "EGFR G719A T790M": {"target": "EGFR G719A T790M (Homo sapiens, UniProt P00533, G719A/T790M)", "sequence (P00533 25-1210 G719A/T790M)": "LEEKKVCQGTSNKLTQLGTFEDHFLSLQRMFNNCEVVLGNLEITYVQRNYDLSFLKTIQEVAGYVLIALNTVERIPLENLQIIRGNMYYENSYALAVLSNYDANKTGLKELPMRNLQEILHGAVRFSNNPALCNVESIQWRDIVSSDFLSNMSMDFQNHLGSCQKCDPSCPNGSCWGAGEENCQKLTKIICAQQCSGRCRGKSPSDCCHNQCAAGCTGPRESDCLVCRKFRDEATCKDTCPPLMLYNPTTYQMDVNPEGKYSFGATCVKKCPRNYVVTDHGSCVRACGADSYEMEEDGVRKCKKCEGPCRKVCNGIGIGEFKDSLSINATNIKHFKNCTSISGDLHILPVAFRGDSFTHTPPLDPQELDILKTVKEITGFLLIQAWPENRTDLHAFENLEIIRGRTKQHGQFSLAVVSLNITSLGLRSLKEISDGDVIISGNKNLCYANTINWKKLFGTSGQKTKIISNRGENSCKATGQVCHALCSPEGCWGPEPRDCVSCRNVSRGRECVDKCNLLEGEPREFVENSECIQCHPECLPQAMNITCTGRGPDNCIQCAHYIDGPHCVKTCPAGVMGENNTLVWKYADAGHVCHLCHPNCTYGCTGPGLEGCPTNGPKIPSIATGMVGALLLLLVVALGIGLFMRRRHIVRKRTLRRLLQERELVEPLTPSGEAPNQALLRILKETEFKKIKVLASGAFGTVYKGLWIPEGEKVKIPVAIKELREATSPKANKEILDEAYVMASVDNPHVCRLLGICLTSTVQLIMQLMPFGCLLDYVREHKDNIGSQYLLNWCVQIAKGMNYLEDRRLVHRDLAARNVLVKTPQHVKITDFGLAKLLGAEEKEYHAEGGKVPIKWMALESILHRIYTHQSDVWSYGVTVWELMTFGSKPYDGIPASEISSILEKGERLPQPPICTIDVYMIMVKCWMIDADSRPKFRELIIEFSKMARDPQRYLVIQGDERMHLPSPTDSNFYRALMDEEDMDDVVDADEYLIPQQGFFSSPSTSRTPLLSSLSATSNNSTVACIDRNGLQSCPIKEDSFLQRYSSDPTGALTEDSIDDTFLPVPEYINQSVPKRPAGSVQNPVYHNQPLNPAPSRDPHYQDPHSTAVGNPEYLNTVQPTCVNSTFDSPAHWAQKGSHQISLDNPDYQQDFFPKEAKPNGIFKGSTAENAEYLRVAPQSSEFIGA", "conditions": "read-out: IC50 Values; Ba/F3 cells expressing EGFR G719A T790M, 72 hours", "description": "as §1, §3"}, "EGFR G719A/R776C": {"target": "EGFR G719A/R776C (Homo sapiens, UniProt P00533, G719A/R776C)", "conditions": "read-out: IC50 Values; Ba/F3 cells expressing EGFR G719A/R776C, 72 hours", "description": "as §1, §3"}, "EGFR L858R T790M L792H": {"target": "EGFR L858R T790M L792H (Homo sapiens, UniProt P00533, L792H/L858R/T790M)", "sequence (P00533 25-1210 T790M/L792H/L858R)": "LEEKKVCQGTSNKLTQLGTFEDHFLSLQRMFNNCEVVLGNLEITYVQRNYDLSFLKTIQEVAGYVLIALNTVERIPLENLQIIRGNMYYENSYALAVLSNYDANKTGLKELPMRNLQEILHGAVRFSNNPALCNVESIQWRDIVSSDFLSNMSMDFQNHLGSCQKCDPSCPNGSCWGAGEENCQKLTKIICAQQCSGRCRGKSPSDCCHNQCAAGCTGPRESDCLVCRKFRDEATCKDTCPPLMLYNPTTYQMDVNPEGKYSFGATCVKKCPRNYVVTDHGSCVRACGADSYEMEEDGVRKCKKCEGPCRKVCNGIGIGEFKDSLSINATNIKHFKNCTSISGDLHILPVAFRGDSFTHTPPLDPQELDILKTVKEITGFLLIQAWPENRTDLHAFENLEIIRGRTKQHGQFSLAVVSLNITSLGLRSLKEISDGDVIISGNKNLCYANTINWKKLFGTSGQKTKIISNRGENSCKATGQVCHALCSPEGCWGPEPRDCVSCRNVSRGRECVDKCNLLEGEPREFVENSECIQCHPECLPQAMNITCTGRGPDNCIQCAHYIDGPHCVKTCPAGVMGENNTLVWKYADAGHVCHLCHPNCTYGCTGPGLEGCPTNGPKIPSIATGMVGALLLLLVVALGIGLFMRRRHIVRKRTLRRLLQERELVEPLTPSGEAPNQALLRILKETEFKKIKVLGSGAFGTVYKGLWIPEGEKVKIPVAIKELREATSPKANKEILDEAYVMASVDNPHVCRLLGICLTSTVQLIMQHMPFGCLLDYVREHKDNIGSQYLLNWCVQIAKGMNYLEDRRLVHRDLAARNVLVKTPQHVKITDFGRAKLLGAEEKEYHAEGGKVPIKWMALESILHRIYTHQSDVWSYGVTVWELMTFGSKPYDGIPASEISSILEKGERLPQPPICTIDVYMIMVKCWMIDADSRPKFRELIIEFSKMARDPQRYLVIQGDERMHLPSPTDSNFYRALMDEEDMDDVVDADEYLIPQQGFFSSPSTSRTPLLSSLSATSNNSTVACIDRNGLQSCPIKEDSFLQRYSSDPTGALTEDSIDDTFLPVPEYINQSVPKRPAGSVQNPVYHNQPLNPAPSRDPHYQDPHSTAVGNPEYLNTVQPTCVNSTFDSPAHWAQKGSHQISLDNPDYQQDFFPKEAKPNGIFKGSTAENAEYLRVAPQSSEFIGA", "conditions": "read-out: IC50 Values; Ba/F3 cells expressing EGFR L858R T790M L792H, 72 hours", "description": "as §1, §2, §3"}, "EGFR S811F": {"target": "EGFR S811F (Homo sapiens, UniProt P00533, S811F)", "conditions": "read-out: IC50 Values; Ba/F3 cells expressing EGFR S811F, 72 hours", "description": "as §1, §2, §3"}, "EGFR L858R/V834L": {"target": "EGFR L858R/V834L (Homo sapiens, UniProt P00533, L858R/V834L)", "sequence (P00533 25-1210 V834L/L858R)": "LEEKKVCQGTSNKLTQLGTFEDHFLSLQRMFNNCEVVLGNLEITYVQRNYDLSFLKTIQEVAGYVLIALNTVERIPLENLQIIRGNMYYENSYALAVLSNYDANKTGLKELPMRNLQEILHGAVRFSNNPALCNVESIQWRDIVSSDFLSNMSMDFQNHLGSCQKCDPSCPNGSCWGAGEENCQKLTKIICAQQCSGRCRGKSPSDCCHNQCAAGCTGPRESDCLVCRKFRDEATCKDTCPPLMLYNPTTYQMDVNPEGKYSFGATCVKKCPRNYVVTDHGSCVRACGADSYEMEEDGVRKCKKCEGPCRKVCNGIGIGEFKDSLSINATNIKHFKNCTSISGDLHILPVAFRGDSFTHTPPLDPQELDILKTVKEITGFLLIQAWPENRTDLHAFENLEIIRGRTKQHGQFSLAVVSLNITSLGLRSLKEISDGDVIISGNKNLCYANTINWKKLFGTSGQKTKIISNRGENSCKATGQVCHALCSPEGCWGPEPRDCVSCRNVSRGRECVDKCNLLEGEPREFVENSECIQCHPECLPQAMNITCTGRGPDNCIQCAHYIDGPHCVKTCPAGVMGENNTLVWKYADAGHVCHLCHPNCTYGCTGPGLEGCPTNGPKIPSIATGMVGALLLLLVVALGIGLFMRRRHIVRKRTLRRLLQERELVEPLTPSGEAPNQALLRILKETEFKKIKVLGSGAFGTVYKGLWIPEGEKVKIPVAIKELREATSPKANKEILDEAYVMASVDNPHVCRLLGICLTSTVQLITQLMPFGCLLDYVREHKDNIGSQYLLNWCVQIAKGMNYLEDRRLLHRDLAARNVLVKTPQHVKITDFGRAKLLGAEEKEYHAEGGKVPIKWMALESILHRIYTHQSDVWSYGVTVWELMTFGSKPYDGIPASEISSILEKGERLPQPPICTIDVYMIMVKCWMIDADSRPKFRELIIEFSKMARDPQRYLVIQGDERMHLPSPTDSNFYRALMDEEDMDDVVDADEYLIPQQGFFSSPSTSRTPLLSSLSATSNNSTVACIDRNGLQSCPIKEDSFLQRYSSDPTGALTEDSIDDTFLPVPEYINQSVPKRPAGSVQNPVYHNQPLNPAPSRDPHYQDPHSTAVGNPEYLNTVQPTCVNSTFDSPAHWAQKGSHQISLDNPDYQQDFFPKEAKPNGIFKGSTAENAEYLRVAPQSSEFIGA", "conditions": "read-out: IC50 Values; Ba/F3 cells expressing EGFR L858R/V834L, 72 hours", "description": "(§4) The transforming capability of the mutations was then evaluated by sustained cell viability following IL-3 deprivation. Activating EGFR mutant Ba/F3 cells were then screened against EGFR TKIs. Cell viability was determined by the Cell Titer Glo assay.\n(§5) Ba/F3 cells expressing acquired atypical mutations spanning exons 18-21 were treated with inhibitors for 72 hours. […] Briefly, stable Ba/F3 cell lines were generated by retroviral transduction of Ba/F3 cell line for 12 hours. […] Three days after transduction, 2 μg/ml puromycin (Invitrogen) was added to the RPMI media. Cell lines were then grown in the absence of IL-3 for two weeks and cell viability was assessed every three days using the Cell Titer Glo assay (Progema).\nas §3"}, "EGFR T790M": {"target": "EGFR T790M (Homo sapiens, UniProt P00533, T790M)", "conditions": "read-out: IC50 Values; Ba/F3 cells expressing EGFR T790M, 72 hours", "description": "as §1, §2, §3"}, "EGFR L858R/C797S": {"target": "EGFR L858R/C797S (Homo sapiens, UniProt P00533, C797S/L858R)", "conditions": "read-out: IC50 Values; Ba/F3 cells expressing EGFR L858R/C797S, 72 hours", "description": "as §4, §5, §3"}, "EGFR L861Q": {"target": "EGFR L861Q (Homo sapiens, UniProt P00533, L861Q)", "conditions": "read-out: IC50 Values; Ba/F3 cells expressing EGFR L861Q, 72 hours", "description": "as §1, §2, §3"}, "EGFR Ex19del G796S": {"target": "EGFR Ex19del G796S (Homo sapiens, UniProt P00533, DEL746-750/G796S)", "conditions": "read-out: IC50 Values; Ba/F3 cells expressing EGFR Ex19del G796S, 72 hours", "description": "as §4, §5, §3"}, "EGFR R776C": {"target": "EGFR R776C (Homo sapiens, UniProt P00533, R776C)", "conditions": "read-out: IC50 Values; Ba/F3 cells expressing EGFR R776C, 72 hours", "description": "as §1, §2, §3"}}, "note": "pIC50: −log10 of the molar value.", "data": [{"smiles": "C=CC(=O)N1CC[C@@H](Oc2nc(Nc3ccc(N4CCC(N5CCN(C)CC5)CC4)cc3)c(C(N)=O)nc2CC)C1", "note": "[Naquotinib]", "values": [{"measurement": "pIC50", "setting": "EGFR E709K L858R", "value": 7.96}, {"measurement": "pIC50", "setting": "EGFR E709K G719S", "value": 7.82}, {"measurement": "pIC50", "setting": "EGFR S768I/T790M", "value": 7.72}, {"measurement": "pIC50", "setting": "EGFR L858R T790M/C797S", "value": 5.36}, {"measurement": "pIC50", "setting": "EGFR G724S", "value": 7.24}, {"measurement": "pIC50", "setting": "EGFR S768I", "value": 6.30}, {"measurement": "pIC50", "setting": "EGFR G719A L861Q", "value": 8.37}, {"measurement": "pIC50", "setting": "EGFR L861R", "value": 7.91}, {"measurement": "pIC50", "setting": "EGFR L833F", "value": 6.39}, {"measurement": "pIC50", "setting": "EGFR S720P", "value": 7.28}, {"measurement": "pIC50", "setting": "EGFR G719A T790M", "value": 7.93}, {"measurement": "pIC50", "setting": "EGFR G719A/R776C", "value": 7.41}, {"measurement": "pIC50", "setting": "EGFR L858R T790M L792H", "value": 6.20}, {"measurement": "pIC50", "setting": "EGFR S811F", "value": 6.76}, {"measurement": "pIC50", "setting": "EGFR L858R/V834L", "value": 8.14}, {"measurement": "pIC50", "setting": "EGFR T790M", "value": 7.26}, {"measurement": "pIC50", "setting": "EGFR L858R/C797S", "value": 6.15}, {"measurement": "pIC50", "setting": "EGFR L861Q", "value": 7.11}, {"measurement": "pIC50", "setting": "EGFR Ex19del G796S", "value": 7.27}, {"measurement": "pIC50", "setting": "EGFR R776C", "value": 6.24}]}]}
